Test results reported in PubChem BioAssay AID1963977 (Molecular Pharmacology Branch, DTP, NCI, 2024).

Tested on: 624824-186-R-J3-PDC multicell spheroids, viability
Experiment: Anticancer human tumor 624824-186-R-J3-PDC patient-derived colon adenocarcinoma cell line growth inhibition [PI3K]
Settings: for IC50: curve of first compound; for viability, T/C: stronger effect = lower value; active = viability on the fitted dose curve at most 10% of control; inactive = the rest
Outline: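 High-throughput combination screen: PI3K inhibitors crossed with targeted small molecules on complex spheroids of tumor cells, HUVEC and MSCs at 37 degrees C, 5% CO2. Top concentration was at or near clinical Cmax (otherwise 10 microM), with half-log decrements.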

[1] = second compound 0.00316 µM, first compound 0.0316 µM
[2] = second compound 0.00316 µM, first compound 0.1 µM
[3] = second compound 0.00316 µM, first compound 0.316 µM
[4] = second compound 0.00316 µM, first compound 1 µM
[5] = second compound 0.00316 µM, first compound 3.16 µM
[6] = second compound 0.00316 µM, first compound 10 µM
[7] = second compound 0.01 µM, first compound 0.0316 µM
[8] = second compound 0.01 µM, first compound 0.1 µM
[9] = second compound 0.01 µM, first compound 0.316 µM
[10] = second compound 0.01 µM, first compound 1 µM
[11] = second compound 0.01 µM, first compound 3.16 µM
[12] = second compound 0.01 µM, first compound 10 µM
[13] = second compound 0.0316 µM, first compound 0.0316 µM
[14] = second compound 0.0316 µM, first compound 0.1 µM
[15] = second compound 0.0316 µM, first compound 0.316 µM
[16] = second compound 0.0316 µM, first compound 1 µM
[17] = second compound 0.0316 µM, first compound 3.16 µM
[18] = second compound 0.0316 µM, first compound 10 µM
[19] = second compound 0.1 µM, first compound 0.0316 µM
[20] = second compound 0.1 µM, first compound 0.1 µM
[21] = second compound 0.1 µM, first compound 0.316 µM
[22] = second compound 0.1 µM, first compound 1 µM
[23] = second compound 0.1 µM, first compound 3.16 µM
[24] = second compound 0.1 µM, first compound 10 µM
[25] = second compound 0.316 µM, first compound 0.0316 µM
[26] = second compound 0.316 µM, first compound 0.1 µM
[27] = second compound 0.316 µM, first compound 0.316 µM
[28] = second compound 0.316 µM, first compound 1 µM
[29] = second compound 0.316 µM, first compound 3.16 µM
[30] = second compound 0.316 µM, first compound 10 µM
[31] = second compound 1 µM, first compound 0.0316 µM
[32] = second compound 1 µM, first compound 0.1 µM
[33] = second compound 1 µM, first compound 0.316 µM
[34] = second compound 1 µM, first compound 1 µM
[35] = second compound 1 µM, first compound 3.16 µM
[36] = second compound 1 µM, first compound 10 µM
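Also: spheroids exposed to agents for seven days before luminescence read.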
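For viability, T/C in this document: luminescent signal used as a stand-in for spheroid viability; percent viability relative to DMSO vehicle control wells taken as 100%.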

C#Cc1c(F)ccc2cc(O)cc(-c3ncc4c(N5CC6CCC(C5)N6)nc(OCC56CCCN5CC(F)C6)nc4c3F)c12 (stereo not drawn) + COc1c(OCCCN2CCOCC2)ccc2c3n(c(=NC(=O)c4cnc(N)nc4)nc12)CCN3
493 nM: IC50 (second compound 0.316 µM)
> 10000 nM: IC50 (second compound 0.00316 µM) | IC50 (second compound 0.01 µM) | IC50 (second compound 0.0316 µM) | IC50 (second compound 0.1 µM)
< 31.6 nM: IC50 (second compound 1 µM)
inactive: viability, T/C [1] 104% | viability, T/C [2] 116% | viability, T/C [3] 114% | viability, T/C [4] 103% | viability, T/C [5] 112% | viability, T/C [6] 111% | viability, T/C [7] 103% | viability, T/C [8] 101% | viability, T/C [9] 102% | viability, T/C [10] 114% | viability, T/C [11] 103% | viability, T/C [12] 103% | viability, T/C [13] 92% | viability, T/C [14] 95.5% | viability, T/C [15] 103% | viability, T/C [16] 93% | viability, T/C [17] 93% | viability, T/C [18] 90.9% | viability, T/C [19] 87.1% | viability, T/C [20] 73.7% | viability, T/C [21] 78.5% | viability, T/C [22] 78.2% | viability, T/C [23] 73.6% | viability, T/C [24] 63.5% | viability, T/C [25] 54.7% | viability, T/C [26] 49.9% | viability, T/C [27] 54.1% | viability, T/C [28] 46.4% | viability, T/C [29] 44.8% | viability, T/C [30] 37.6% | viability, T/C [31] 28.4% | viability, T/C [32] 27.7% | viability, T/C [33] 26.9% | viability, T/C [34] 23.5% | viability, T/C [35] 24.6% | viability, T/C [36] 17.1%

CC(Cn1ccc(-c2ccc(C#N)c(Cl)c2)n1)NC(=O)c1cc(C(C)O)[nH]n1 (stereo not drawn) + COc1c(OCCCN2CCOCC2)ccc2c3n(c(=NC(=O)c4cnc(N)nc4)nc12)CCN3
239 nM: IC50 (second compound 0.316 µM)
> 10000 nM: IC50 (second compound 0.00316 µM) | IC50 (second compound 0.01 µM) | IC50 (second compound 0.0316 µM) | IC50 (second compound 0.1 µM)
inactive: viability, T/C [1] 106% | viability, T/C [2] 98.6% | viability, T/C [3] 101% | viability, T/C [4] 96.3% | viability, T/C [5] 103% | viability, T/C [6] 98.2% | viability, T/C [7] 101% | viability, T/C [8] 93.2% | viability, T/C [9] 98.2% | viability, T/C [10] 103% | viability, T/C [11] 108% | viability, T/C [12] 105% | viability, T/C [13] 96.6% | viability, T/C [14] 97.4% | viability, T/C [15] 87.3% | viability, T/C [16] 95.6% | viability, T/C [17] 91.9% | viability, T/C [18] 84.5% | viability, T/C [19] 74.5% | viability, T/C [20] 79.9% | viability, T/C [21] 78% | viability, T/C [22] 76.6% | viability, T/C [23] 77% | viability, T/C [24] 68.7% | viability, T/C [25] 54.6% | viability, T/C [26] 50.1% | viability, T/C [27] 49.8% | viability, T/C [28] 48.2% | viability, T/C [29] 40.9% | viability, T/C [30] 38.8% | viability, T/C [31] 26.9% | viability, T/C [32] 28.1% | viability, T/C [33] 28.3% | viability, T/C [34] 28.2% | viability, T/C [35] 24.9% | viability, T/C [36] 23.6%
< 31.6 nM: IC50 (second compound 1 µM)

CC1(C)CCC(Nc2ncc(C(F)(F)F)c(-c3c[nH]c4c(P(C)(C)=O)c(C#N)ccc34)n2)CN1 (stereo not drawn) + COc1c(OCCCN2CCOCC2)ccc2c3n(c(=NC(=O)c4cnc(N)nc4)nc12)CCN3
5420 nM: IC50 (second compound 0.00316 µM)
5060 nM: IC50 (second compound 0.01 µM)
active: viability, T/C [6] 3.27% | viability, T/C [12] 3.28% | viability, T/C [18] 2.59% | viability, T/C [24] 1.87% | viability, T/C [30] 1.42% | viability, T/C [36] 1.68%
< 31.6 nM: IC50 (second compound 0.1 µM) | IC50 (second compound 0.316 µM) | IC50 (second compound 1 µM)
inactive: viability, T/C [1] 103% | viability, T/C [2] 84.7% | viability, T/C [3] 87.1% | viability, T/C [4] 85% | viability, T/C [5] 95.1% | viability, T/C [7] 90.8% | viability, T/C [8] 72.4% | viability, T/C [9] 76.6% | viability, T/C [10] 81.7% | viability, T/C [11] 89.5% | viability, T/C [13] 59.7% | viability, T/C [14] 55.2% | viability, T/C [15] 54.9% | viability, T/C [16] 60.6% | viability, T/C [17] 55.9% | viability, T/C [19] 41.8% | viability, T/C [20] 36.6% | viability, T/C [21] 40.8% | viability, T/C [22] 38.2% | viability, T/C [23] 37.9% | viability, T/C [25] 28.5% | viability, T/C [26] 30.3% | viability, T/C [27] 28.9% | viability, T/C [28] 24.8% | viability, T/C [29] 24.7% | viability, T/C [31] 19.4% | viability, T/C [32] 18.4% | viability, T/C [33] 19% | viability, T/C [34] 18.1% | viability, T/C [35] 18%
3600 nM: IC50 (second compound 0.0316 µM)

Cn1cnc2c(F)c(Nc3ccc(Br)cc3Cl)c(C(=O)NOCCO)cc21 + Cc1nc(NC(=O)N2CCCC2C(N)=O)sc1-c1ccnc(C(C)(C)C(F)(F)F)c1
1890 nM: IC50 (second compound 0.0316 µM)
14.9 nM: IC50 (second compound 10 µM)
207 nM: IC50 (second compound 1 µM)
48.4 nM: IC50 (second compound 3.16 µM)
884 nM: IC50 (second compound 0.1 µM)
515 nM: IC50 (second compound 0.316 µM)
active: viability, T/C (second compound 3.16 µM, first compound 3 µM) 6.56% | viability, T/C (second compound 10 µM, first compound 0.949 µM) 5.42% | viability, T/C (second compound 10 µM, first compound 3 µM) 1.91%
inactive: viability, T/C (second compound 0.0316 µM, first compound 0.00949 µM) 116% | viability, T/C (second compound 0.0316 µM, first compound 0.03 µM) 104% | viability, T/C (second compound 0.0316 µM, first compound 0.0949 µM) 89% | viability, T/C (second compound 0.0316 µM, first compound 0.3 µM) 82.1% | viability, T/C (second compound 0.0316 µM, first compound 0.949 µM) 62.8% | viability, T/C (second compound 0.0316 µM, first compound 3 µM) 40.5% | viability, T/C (second compound 0.1 µM, first compound 0.00949 µM) 105% | viability, T/C (second compound 0.1 µM, first compound 0.03 µM) 98.1% | viability, T/C (second compound 0.1 µM, first compound 0.0949 µM) 94.6% | viability, T/C (second compound 0.1 µM, first compound 0.3 µM) 68% | viability, T/C (second compound 0.1 µM, first compound 0.949 µM) 50.9% | viability, T/C (second compound 0.1 µM, first compound 3 µM) 31.6% | viability, T/C (second compound 0.316 µM, first compound 0.00949 µM) 114% | viability, T/C (second compound 0.316 µM, first compound 0.03 µM) 98.2% | viability, T/C (second compound 0.316 µM, first compound 0.0949 µM) 85.5% | viability, T/C (second compound 0.316 µM, first compound 0.3 µM) 59.9% | viability, T/C (second compound 0.316 µM, first compound 0.949 µM) 37.7% | viability, T/C (second compound 0.316 µM, first compound 3 µM) 22.4% | viability, T/C (second compound 1 µM, first compound 0.00949 µM) 97.3% | viability, T/C (second compound 1 µM, first compound 0.03 µM) 91.5% | viability, T/C (second compound 1 µM, first compound 0.0949 µM) 67.7% | viability, T/C (second compound 1 µM, first compound 0.3 µM) 40.1% | viability, T/C (second compound 1 µM, first compound 0.949 µM) 24.9% | viability, T/C (second compound 1 µM, first compound 3 µM) 12.5% | viability, T/C (second compound 3.16 µM, first compound 0.00949 µM) 73.8% | viability, T/C (second compound 3.16 µM, first compound 0.03 µM) 60.4% | viability, T/C (second compound 3.16 µM, first compound 0.0949 µM) 36.2% | viability, T/C (second compound 3.16 µM, first compound 0.3 µM) 22.6% | viability, T/C (second compound 3.16 µM, first compound 0.949 µM) 17.3% | viability, T/C (second compound 10 µM, first compound 0.00949 µM) 56% | viability, T/C (second compound 10 µM, first compound 0.03 µM) 42.2% | viability, T/C (second compound 10 µM, first compound 0.0949 µM) 21.4% | viability, T/C (second compound 10 µM, first compound 0.3 µM) 16%
